Test results taken from patent publication US11008323B2, “Substituted tricyclic 1,4-benzodiazepinone derivatives as allosteric modulators of group II metabotropic glutamate receptors” (Domain Therapeutics, priority 2015, dated 2021).
Where a name gives a salt, the structure may show the parent alone.

Row | Structure (SMILES) | melting point [°C]
1 | Cc1ncccc1-c1ccc2c(c1)-n1cc(-c3ccncc3)cc1C(=O)N(C)C21CC1 (as salt: hydrochloride) [Example 145] | > 250
2 | Cc1ncccc1-c1ccc2c(c1)-n1cc(-c3cc[nH]n3)cc1C(=O)N(C)C21CC1 (as salt: hydrochloride) [Example 146] | 240 to 250
3 | Cc1ncccc1-c1ccc2c(c1)-n1cc(-c3ccc(F)cc3)cc1C(=O)N(C)C21CC1 (as salt: hydrochloride) [Example 150] | 226 to 230
4 | Cc1ncccc1-c1ccc2c(c1)-n1cc(-c3ccccc3F)cc1C(=O)N(C)C21CC1 (as salt: hydrochloride) [Example 151] | 185 to 190
5 | Cc1ncccc1-c1ccc2c(c1)-n1cc(-c3cccc(F)c3)cc1C(=O)N(C)C21CC1 (as salt: hydrochloride) [Example 152] | 183 to 190
6 | Cc1ncccc1-c1ccc2c(c1)-n1cc(N(C)C)cc1C(=O)N(C)C21CC1 (as salt: hydrochloride) [Example 154] | 120 to 134
7 | Cc1ncccc1-c1ccc2c(c1)-n1cc(C3CC3)cc1C(=O)N(C)C21CC1 (as salt: hydrochloride) [Example 155] | 190 to 198
8 | Cc1ncccc1-c1ccc2c(c1)-n1cc(C3CCCC3)cc1C(=O)N(C)C21CC1 (as salt: hydrochloride) [Example 156] | 230 to 235
9 | Cc1ncccc1-c1ccc2c(c1)-n1cc(-c3nccs3)cc1C(=O)N(C)C21CC1 (as salt: hydrochloride) [Example 157] | 240 to 245
10 | Cc1ccc(-c2ccc3c(c2)-n2cc(-c4nccs4)cc2C(=O)N(C)C32CC2)cn1 (as salt: hydrochloride) [Example 158] | 228 to 239
11 | Cc1ccc(-c2ccc3c(c2)-n2cc(-c4ccnn4C)cc2C(=O)N(C)C32CC2)cn1 (as salt: hydrochloride) [Example 159] | 187 to 194
12 | Cc1ncccc1-c1ccc2c(c1)-n1cc(-c3ccnn3C)cc1C(=O)N(C)C21CC1 (as salt: hydrochloride) [Example 160] | 229 to 237
13 | CCc1ncccc1-c1ccc2c(c1)-n1cc(-c3ccccc3F)cc1C(=O)N(C)C21CC1 (as salt: hydrochloride) [Example 162] | 189 to 195
14 | CCc1ncccc1-c1ccc2c(c1)-n1cc(-c3ccnn3C)cc1C(=O)N(C)C21CC1 (as salt: hydrochloride) [Example 163] | 187 to 192
15 | CN1Cc2ccc(-c3ccc(N)nc3)cc2-n2cc(-c3ccccc3)cc2C1=O (as salt: hydrochloride) [Example 165, 9-(6-Amino-pyridin-3-yl)-5-methyl-2-phenyl-5,6-dihydro-benzo[f]pyrrolo[1,2-a][1,4]diazepin-4-one] | > 250
16 | Cc1ncccc1-c1ccc2c(c1)-n1cc(-c3ccccc3)nc1C(=O)N(C)C2 (as salt: hydrochloride) [Example 166, 5-Methyl-9-(2-methylpyridin-3-yl)-2-phenyl-5,6-dihydro-4H-benzo[f]imidazo[1,2-a][1,4]diazepin-4-one] | 240 to 245
17 | CCN1Cc2ccc(-c3cccnc3C)cc2-n2cc(-c3ccccc3)nc2C1=O (as salt: hydrochloride) [Example 167, 5-Ethyl-9-(2-methylpyridin-3-yl)-2-phenyl-5,6-dihydro-4H-benzo[f]imidazo[1,2-a][1,4]diazepin-4-one] | 200 to 220

Row | Structure (SMILES) | melting point [°C]
18 | Cc1ncccc1-c1ccc2c(c1)-n1cc(-c3cnco3)cc1C(=O)N(C)C21CC1 (as salt: hydrochloride) [Example 182] | 158 to 168
19 | Cc1ncccc1-c1ccc2c(c1)-n1cc(-c3cnc[nH]3)cc1C(=O)N(C)C21CC1 (as salt: hydrochloride) [Example 183] | > 250
20 | Cc1ncccc1-c1ccc2c(c1)-n1cc(-c3ncc[nH]3)cc1C(=O)N(C)C21CC1 (as salt: hydrochloride) [Example 184] | > 250
21 | Cc1ncccc1-c1ccc2c(c1)-n1cc(C(=O)C3CCCC3)cc1C(=O)N(C)C21CC1 (as salt: hydrochloride) [Example 194] | 177 to 190
22 | CC(=O)c1cc2n(c1)-c1cc(-c3cccnc3C)ccc1C1(CC1)N(C)C2=O (as salt: hydrochloride) [Example 195] | 200 to 220
23 | Cc1ncccc1-c1ccc2c(c1)-n1cc(CC3CCCC3)cc1C(=O)N(C)C21CC1 (as salt: hydrochloride) [Example 196] | 165 to 176
24 | CCc1cc2n(c1)-c1cc(-c3cccnc3C)ccc1C1(CC1)N(C)C2=O (as salt: hydrochloride) [Example 197] | 165 to 175
25 | CCc1ncccc1-c1ccc2c(c1)-n1cc(C)cc1C(=O)N(C)C21CC1 (as salt: hydrochloride) [Example 199] | 179 to 184
26 | Cc1ncccc1-c1ccc2c(c1)-n1cc(C(F)F)cc1C(=O)N(C)C21CC1 (as salt: hydrochloride) [Example 201] | 240 to 250
27 | CCc1ncccc1-c1ccc2c(c1)-n1cc(CO)cc1C(=O)N(C)C21CC1 (as salt: hydrochloride) [Example 203] | > 250
28 | COCc1cc2n(c1)-c1cc(-c3ccc(C)nc3)ccc1C1(CC1)N(C)C2=O (as salt: hydrochloride) [Example 205] | 113 to 123
29 | Cc1ncccc1-c1ccc2c(c1)-n1cncc1C(=O)N(C)C2 (as salt: hydrochloride) [Example 215, 5-Methyl-9-(2-methylpyridin-3-yl)-5,6-dihydro-4H-benzo[f]imidazo[1,5-a][1,4]diazepin-4-one] | 158 to 170
30 | Cc1ncccc1-c1ccc2c(c1)-n1ccnc1C(=O)N(C)C2 (as salt: hydrochloride) [Example 216, 5-Methyl-9-(2-methylpyridin-3-yl)-5,6-dihydro-4H-benzo[f]imidazo[1,2-a][1,4]diazepin-4-one] | 210 to 230
31 | Cc1ncccc1-c1ccc2c(c1)-n1nccc1C(=O)N(C)C2 (as salt: hydrochloride) [Example 217, 5-Methyl-9-(2-methylpyridin-3-yl)-5,6-dihydro-4H-benzo[f]pyrazolo[1,5-a][1,4]diazepin-4-one] | 120 to 140
32 | Cc1ncccc1-c1ccc2c(c1)-n1cccc1C(=O)N(C)C2C (stereo not shown) (as salt: hydrochloride) [Example 218, 5,6-Dimethyl-9-(2-methyl-pyridin-3-yl)-5,6-dihydro-benzo[f]pyrrolo[1,2-a][1,4]diazepin-4-one] | 140 to 156
33 | CC1c2ccc(-c3ccc(N(C)C)nc3)cc2-n2cccc2C(=O)N1C (stereo not shown) (as salt: hydrochloride) [Example 219, 9-(6-Dimethylamino-pyridin-3-yl)-5,6-dimethyl-5,6-dihydro-benzo[f]pyrrolo[1,2-a][1,4]diazepin-4-one] | 145 to 162
34 | CCC1c2ccc(-c3cccnc3C)cc2-n2cccc2C(=O)N1C (stereo not shown) (as salt: hydrochloride) [Example 220, 6-Ethyl-5-methyl-9-(2-methyl-pyridin-3-yl)-5,6-dihydro-benzo[f]pyrrolo[1,2-a][1,4]diazepin-4-one] | 160 to 170
